US11472841B2, “Immunogenic composition” (MENICON CO., LTD., priority 2018, dated 2022)

Key:
female BALB/c mice [1] = assay: Example 4: blood IgG value (IgG ELISA kit) after three intradermal administrations; assay type: in vivo; conditions: in combination with any antigen protein (albumin, casein, lysozyme, papain); day 21
Description: (§1) Five-week-old female BALB/c mice (supplied by Charles River) were divided into administration groups of 2 mice and an untreated group of 3 mice. 100 μL of each test sample described in Table 5 was intradermally administered to mice of corresponding groups on days 0, 7, and 14 of the administration. […] The collected blood was incubated at 25° C. for 30 minutes and then preserved overnight at 4° C. to assemble a blood clot, centrifugation was performed at 1,000 to 1,200 × g at 4° C. for 20 minutes, and a supernatant was collected. The blood IgG value of the collected serum was measured using an IgG ELISA kit. The serum was diluted 200,000 times with a dilution buffer attached to the kit. In addition, the back skin including the administration site of the third test sample was collected after collecting blood to prepare a tissue specimen.
The method for preparing the above-described test sample is as follows. That is, an antigen solution was prepared by dissolving an antigen protein in water, and the antigen solution and a 1.5 w/v % peptide composition (peptide compositions A to D described in Table 1) or PuraMatrix™ (which is manufactured by Corning Japan Ltd. and is a self-assembling peptide composition containing 1.0 w/v % of Ac-[…]-CONH2 (SEQ ID No: 18)) were mixed with each other so that the self-assembling peptide concentration became 0.75 w/v % and the antigen protein concentration became 0.25 mg/mL (=0.025 w/v %) to prepare a test sample. In addition, a sample obtained by mixing the above-described antigen solution with physiological saline so that the antigen protein concentration became 0.25 mg/mL was used as a control sample.

female BALB/c mice [2] = assay: Example 4: tissue specimen of back skin including administration site; assay type: in vivo; conditions: 7 days after the administration, intradermal
Description: as §1
The method for preparing the above-described test sample is as follows. […]

[3] = antigen protein; cited from earlier work

remaining of test sample inside the skin (female BALB/c mice [2]) | Molecule | immunogenicity (blood IgG) (female BALB/c mice [1]) | Isoelectric point [3]
– | SEQ ID No: 16 (RLDLRLNLRLDLR; self-assembling peptide) | enhanced | –
the test sample remained inside the skin | Ac-RLDLRLALRLDLR-NH2 [SEQ ID No: 1] | enhanced | –
the test sample remained inside the skin | Ac-RLDLRLSLRLDLR-NH2 [SEQ ID No: 15] | enhanced | –
– | OVA: Ovalbumin antigen, Wako Pure Chemical Industries (protein, UniProt P01012 2-386, looked up) Ovalbumin: GSIGAASMEFCFDVFKELKVHHANENIFYCPIAIMSALAMVYLGAKDSTRTQINKVVRFDKLPGFGDSIEAQCGTSVNVHSSLRDILNQITKPNDVYSFSLASRLYAEERYPILPEYLQCVKELYRGGLEPINFQTAADQARELINSWVESQTNGIIRNVLQPSSVDSQTAMVLVNAIVFKGLWEKAFKDEDTQAMPFRVTEQESKPVQMMYQIGLFRVASMASEKMKILELPFASGTMSMLVLLPDEVSGLEQLESIINFEKLTEWTSSNVMEERKIKVYLPRMKMEEKYNLTSVLMAMGITDVFSSSANLSGISSAESLKISQAVHAAHAEINEAGREVVGSAEAGVDAASVSEEFRADHPFLFCIKHIATNAVLFFGRCVSP | – | OVA: Ovalbumin (isoelectric point: 4.5, manufactured by Wako Pure Chemical Industries, Ltd., Cat. No.
